According to patent US12545639B2, “3-substituted phenylamidine compounds, preparation and use thereof” (PI INDUSTRIES LTD., priority 2019, dated 2026):

Experiments:
Phakopsora pachyrhizi = Phakopsora pachyrhizi test in soybean, preventive, in vivo on plants; settings: in Glycine max, read-out: Efficacy (% control), disease severity compared to the untreated check
Rhizoctonia solani = Rhizoctonia solani (rice sheath blight/potato black scurf) in vitro test, radial growth on potato dextrose agar; type: cell-based; settings: 168 h, 300 ppm in potato dextrose agar, 25° C., 60% relative humidity, seven days, read-out: control compared to the untreated check (radial growth)
Botrytis cinerea = Botrytis cinerea (gray mold) in vitro test, radial growth on potato dextrose agar; type: cell-based; settings: 168 h, 300 ppm in potato dextrose agar, 22° C., 90% relative humidity, seven days, read-out: control compared to the untreated check (radial growth)
Alternaria solani = Alternaria solani (early blight of tomato/potato) in vitro test, radial growth on potato dextrose agar; type: cell-based; settings: 168 h, 300 ppm in potato dextrose agar, 25° C., 60% relative humidity, seven days, read-out: control compared to the untreated check (radial growth)
Pyricularia oryzae = experiment: microbe, parasite or virus in culture; type: cell-based; settings: 168 h, read-out: control compared to the untreated check (radial growth)
[1] = tested on: Septoria lycopersici/Corynespora cassicola (CORYCA); experiment: Septoria lycopersici/Corynespora cassicola (CORYCA) (leaf spot of tomato) in vitro test, radial growth on potato dextrose agar; type: cell-based; settings: 168 h, 300 ppm in potato dextrose agar, 25° C., 70% relative humidity, seven days, read-out: control compared to the untreated check (radial growth)

CCN(C)C=Nc1cc(F)cc(NCc2ccc(F)c(C)c2)c1C [Compound 182, N-ethyl-N′-(5-fluoro-3-((4-fluoro-3-methylbenzyl)amino)-2-methylphenyl)-N-methylformimidamide]
≥ 70%: pest or weed control at 500 ppm (Phakopsora pachyrhizi) | inhibition of growth at 300 ppm (Rhizoctonia solani) | inhibition of growth at 300 ppm (Botrytis cinerea) | inhibition of growth at 300 ppm (Alternaria solani) | inhibition of growth at 300 ppm (Pyricularia oryzae)

CCN(C)C=Nc1cc(OC)cc(Nc2cccc(C(F)(F)F)n2)c1C [Compound 272, N-ethyl-N′-(5-methoxy-2-methyl-3-((6-(trifluoromethyl)pyridin-2-yl)amino)phenyl)-N-methylformimidamide]
≥ 70%: inhibition of growth at 300 ppm (Alternaria solani) | inhibition of growth at 300 ppm (Pyricularia oryzae) | inhibition of growth at 300 ppm [1]

CCN(C)C=Nc1cc(F)cc(Nc2cccc(C)c2F)c1C [Compound 122, N-ethyl-N′-(5-fluoro-3-((2-fluoro-3-methylphenyl)amino)-2-methylphenyl)-N-methylformimidamide]
≥ 70%: pest or weed control at 500 ppm (Phakopsora pachyrhizi) | inhibition of growth at 300 ppm (Botrytis cinerea) | inhibition of growth at 300 ppm (Pyricularia oryzae)

CCN(C)C=Nc1cc(Cl)cc(Nc2ccccc2C)c1C [Compound 185, N′-(5-chloro-2-methyl-3-(o-tolylamino)phenyl)-N-ethyl-N-methylformimidamide]
≥ 70%: pest or weed control at 500 ppm (Phakopsora pachyrhizi) | inhibition of growth at 300 ppm (Rhizoctonia solani) | inhibition of growth at 300 ppm (Botrytis cinerea) | inhibition of growth at 300 ppm (Alternaria solani) | inhibition of growth at 300 ppm (Pyricularia oryzae)

CCN(C)C=Nc1cc(F)cc(Cc2ccc(Br)c(C)c2)c1C [Compound 232, N′-(3-(4-bromo-3-methylbenzyl)-5-fluoro-2-methylphenyl)-N-ethyl-N-methylformimidamide]
≥ 70%: pest or weed control at 500 ppm (Phakopsora pachyrhizi) | inhibition of growth at 300 ppm (Rhizoctonia solani) | inhibition of growth at 300 ppm (Botrytis cinerea) | inhibition of growth at 300 ppm (Alternaria solani) | inhibition of growth at 300 ppm (Pyricularia oryzae)

CCN(C)C=Nc1cc(F)cc(Cc2ccc(F)cc2Br)c1C [Compound 230, N′-(3-(2-bromo-4-fluorobenzyl)-5-fluoro-2-methylphenyl)-N-ethyl-N-methylformimidamide]
≥ 70%: pest or weed control at 500 ppm (Phakopsora pachyrhizi) | inhibition of growth at 300 ppm (Rhizoctonia solani) | inhibition of growth at 300 ppm (Botrytis cinerea) | inhibition of growth at 300 ppm (Alternaria solani) | inhibition of growth at 300 ppm (Pyricularia oryzae)

CCN(C)C=Nc1cc(F)cc(Cc2cc(F)ccc2Cl)c1C [Compound 229, N′-(3-(2-chloro-5-fluorobenzyl)-5-fluoro-2-methylphenyl)-N-ethyl-N-methylformimidamide]
≥ 70%: pest or weed control at 500 ppm (Phakopsora pachyrhizi) | inhibition of growth at 300 ppm (Rhizoctonia solani) | inhibition of growth at 300 ppm (Botrytis cinerea) | inhibition of growth at 300 ppm (Alternaria solani) | inhibition of growth at 300 ppm (Pyricularia oryzae)

CCN(C)C=Nc1cc(F)cc(N(C)c2ccc(F)cc2F)c1C [Compound 80, N′-(3-((2,4-difluorophenyl)(methyl)amino)-5-fluoro-2-methylphenyl)-N-ethyl-N-methylformimidamide]
≥ 70%: pest or weed control at 500 ppm (Phakopsora pachyrhizi) | inhibition of growth at 300 ppm (Rhizoctonia solani) | inhibition of growth at 300 ppm (Botrytis cinerea) | inhibition of growth at 300 ppm (Alternaria solani) | inhibition of growth at 300 ppm (Pyricularia oryzae)

CCN(C)C=Nc1cc(Cl)cc(N(C)c2cccc(C)c2)c1C [Compound 160, N′-(5-chloro-2-methyl-3-(methyl(m-tolyl)amino)phenyl)-N-ethyl-N-methylformimidamide]
≥ 70%: pest or weed control at 500 ppm (Phakopsora pachyrhizi) | inhibition of growth at 300 ppm (Botrytis cinerea) | inhibition of growth at 300 ppm (Alternaria solani) | inhibition of growth at 300 ppm (Pyricularia oryzae)

CCN(C)C=Nc1cc(F)cc(N(C)c2cccc(F)c2)c1C [Compound 32, N-ethyl-N′-(5-fluoro-3-((3-fluorophenyl)(methyl)amino)-2-methylphenyl)-N-methylformimidamide]
≥ 70%: pest or weed control at 500 ppm (Phakopsora pachyrhizi) | inhibition of growth at 300 ppm (Botrytis cinerea) | inhibition of growth at 300 ppm (Alternaria solani) | inhibition of growth at 300 ppm (Pyricularia oryzae)

CCN(C)C=Nc1cc(F)cc(Cc2ccc(C#N)cc2)c1C [Compound 202, N′-(3-(4-cyanobenzyl)-5-fluoro-2-methylphenyl)-N-ethyl-N-methylformimidamide]
≥ 70%: pest or weed control at 500 ppm (Phakopsora pachyrhizi) | inhibition of growth at 300 ppm (Rhizoctonia solani) | inhibition of growth at 300 ppm (Botrytis cinerea) | inhibition of growth at 300 ppm (Alternaria solani) | inhibition of growth at 300 ppm (Pyricularia oryzae)

CCN(C)C=Nc1cc(Cl)cc(N(C)c2cccc(F)c2)c1C [Compound 179, N′-(5-chloro-3-((3-fluorophenyl)(methyl)amino)-2-methylphenyl)-N-ethyl-N-methylformimidamide]
≥ 70%: pest or weed control at 500 ppm (Phakopsora pachyrhizi) | inhibition of growth at 300 ppm (Botrytis cinerea) | inhibition of growth at 300 ppm (Alternaria solani) | inhibition of growth at 300 ppm (Pyricularia oryzae)

CCN(C)C=Nc1cc(F)cc(N(C)c2cccc(Cl)c2)c1C [Compound 33, N′-(3-((3-chlorophenyl)(methyl)amino)-5-fluoro-2-methylphenyl)-N-ethyl-N-methylformimidamide]
≥ 70%: pest or weed control at 500 ppm (Phakopsora pachyrhizi) | inhibition of growth at 300 ppm (Botrytis cinerea) | inhibition of growth at 300 ppm (Alternaria solani) | inhibition of growth at 300 ppm (Pyricularia oryzae)

CCN(C)C=Nc1cc(C)cc(N(C)c2ccc(F)c(F)c2)c1Cl [Compound 81, N′-(2-chloro-3-((3,4-difluorophenyl)(methyl)amino)-5-methylphenyl)-N-ethyl-N-methylformimidamide]
≥ 70%: pest or weed control at 500 ppm (Phakopsora pachyrhizi) | inhibition of growth at 300 ppm (Botrytis cinerea) | inhibition of growth at 300 ppm (Alternaria solani)

CCN(C)C=Nc1cc(F)cc(N(C)c2cccc(C(F)(F)F)n2)c1C [Compound 291, N-ethyl-N′-(5-fluoro-2-methyl-3-(methyl(6-(trifluoromethyl)pyridin-2-yl)amino)phenyl)-N-methylformimidamide]
≥ 70%: inhibition of growth at 300 ppm (Alternaria solani) | inhibition of growth at 300 ppm (Pyricularia oryzae) | inhibition of growth at 300 ppm [1]

CCN(C)C=Nc1cc(F)cc(N(C)c2ccc(F)c(F)c2)c1C [Compound 83, N′-(3-((3,4-difluorophenyl)(methyl)amino)-5-fluoro-2-methylphenyl)-N-ethyl-N-methylformimidamide]
≥ 70%: inhibition of growth at 300 ppm (Rhizoctonia solani) | inhibition of growth at 300 ppm (Botrytis cinerea) | inhibition of growth at 300 ppm (Alternaria solani) | inhibition of growth at 300 ppm (Pyricularia oryzae)

CCN(C)C=Nc1cc(C)cc(Nc2ccc(Cl)cc2F)c1Cl [Compound 134, N′-(2-chloro-3-((4-chloro-2-fluorophenyl)amino)-5-methylphenyl)-N-ethyl-N-methylformimidamide]
≥ 70%: pest or weed control at 500 ppm (Phakopsora pachyrhizi) | inhibition of growth at 300 ppm (Rhizoctonia solani) | inhibition of growth at 300 ppm (Botrytis cinerea) | inhibition of growth at 300 ppm (Pyricularia oryzae)

CCN(C)C=Nc1cc(F)cc(Cc2cccc(C#N)c2)c1C [Compound 174, N′-(3-(3-cyanobenzyl)-5-fluoro-2-methylphenyl)-N-ethyl-N-methylformimidamide]
≥ 70%: inhibition of growth at 300 ppm (Rhizoctonia solani) | inhibition of growth at 300 ppm (Botrytis cinerea) | inhibition of growth at 300 ppm (Alternaria solani) | inhibition of growth at 300 ppm (Pyricularia oryzae)

CCN(C)C=Nc1cc(F)cc(Cc2cc(F)ccc2C)c1C [Compound 231, N-ethyl-N′-(5-fluoro-3-(5-fluoro-2-methylbenzyl)-2-methylphenyl)-N-methylformimidamide]
≥ 70%: pest or weed control at 500 ppm (Phakopsora pachyrhizi) | inhibition of growth at 300 ppm (Rhizoctonia solani) | inhibition of growth at 300 ppm (Botrytis cinerea) | inhibition of growth at 300 ppm (Alternaria solani) | inhibition of growth at 300 ppm (Pyricularia oryzae)

CCN(C)C=Nc1cc(C)cc(Cc2cc(F)ccc2C)c1Cl [Compound 57, N′-(2-chloro-3-(5-fluoro-2-methylbenzyl)-5-methylphenyl)-N-ethyl-N-methylformimidamide]
≥ 70%: pest or weed control at 500 ppm (Phakopsora pachyrhizi) | inhibition of growth at 300 ppm (Botrytis cinerea) | inhibition of growth at 300 ppm (Alternaria solani) | inhibition of growth at 300 ppm (Pyricularia oryzae)

CCN(C)C=Nc1cc(F)cc(Cc2ccc(Br)cc2)c1C [Compound 175, N′-(3-(4-bromobenzyl)-5-fluoro-2-methylphenyl)-N-ethyl-N-methylformimidamide]
≥ 70%: inhibition of growth at 300 ppm (Rhizoctonia solani) | inhibition of growth at 300 ppm (Botrytis cinerea) | inhibition of growth at 300 ppm (Alternaria solani) | inhibition of growth at 300 ppm (Pyricularia oryzae)

CCN(C)C=Nc1cc(C)cc(Nc2cccc(OC)c2)c1Cl [Compound 42, N′-(2-chloro-3-((3-methoxyphenyl)amino)-5-methylphenyl)-N-ethyl-N-methylformimidamide]
≥ 70%: pest or weed control at 500 ppm (Phakopsora pachyrhizi) | inhibition of growth at 300 ppm (Rhizoctonia solani) | inhibition of growth at 300 ppm (Botrytis cinerea) | inhibition of growth at 300 ppm (Alternaria solani) | inhibition of growth at 300 ppm (Pyricularia oryzae)
